Test results as given in patent US20100173872A1, “Method and Composition for Treating Alzheimer's Disease and Dementias of Vascular Origin” (THE BOARD OF TRUSTEES OF THE UNIVERSITY OF ILLINOIS, priority 2002, published 2010).
Bridge positions count the residues as written; N and C are the ends. Square brackets hold non-standard residues; d marks the D form. Ends that are not written are not given here. Peptide text beside a SMILES is read from it.

Legend:
ET receptor = conditions: cited from earlier work; for effect of pretreatment on systemic hemodynamic and regional circulatory effects of ET-1: BQ123 10 μg ICV, centrally administered ET-1; for effect on hemodynamics or regional blood circulation: specific ETB receptor agonists, separate experiments
[1] = Effect of ET-1 infusion on brain blood flow in control and Aβ-treated rats; format: in vivo, rat; conditions: 30 minutes infusion; Aβ-treated vs control rats
Experimental: Studies in 3-month-old rats to determine the effect of Aβ on systemic hemodynamics and regional blood circulation were performed. […] The effect of ET-1 on the brain blood flow of control and Aβ treated rats also was determined (FIG. 4).
Once infusion was stopped, a rebound increase in blood flow was observed. It can be inferred that Aβ increased the endogenous concentration of ET-1, leading to vasoconstriction. Accordingly, the administration of an ET-1 antagonist can cause a rebound increase in blood flow.

[2] = system: sympathetic nerve activity; conditions: ET-1 90 ng; cited from earlier work

Compound: CC(C)C[C@@H]1NC(=O)[C@@H](C(C)C)NC(=O)[C@@H]2CCCN2C(=O)[C@@H](CC(=O)O)NC(=O)[C@@H](Cc2c[nH]c3ccccc23)NC1=O [BQ123, cyclo(-D-Trp-D-Asp-Pro-D-Val-Leu-)] (cyclo(L[dW][dD]P[dV]))
- effect of pretreatment on systemic hemodynamic and regional circulatory effects of ET-1 (ET receptor): blocked

Compound: CC(C)NCC(O)COc1cccc2ccccc12 (stereo not drawn) [propranolol]
- effect of pretreatment on systemic hemodynamic and regional circulatory effects of ET-1 (ET receptor): blocked

Compound: ET-1: endothelin-1, a potent cerebrovascular vasoconstrictor peptide; ETA receptor agonist (CSCSSLMDKECVYFCHLDIIW; disulfide 1-15, 3-11; ends not checked; UniProt P05305 53-73, looked up)
- effect of ET-1 infusion on brain blood flow [1]: more marked in Aβ-treated rats
- sympathetic nerve activity [2]: significantly decreased
- cardiac output and stroke volume (ET receptor; 45 ng ICV): significant decreases
- total peripheral resistance (ET receptor; 45 ng ICV): remained unchanged

Compound: ET-2: ETA receptor agonist (CSCSSWLDKECVYFCHLDIIW; disulfide 1-15, 3-11; ends not checked; UniProt P20800 49-69, looked up)
- intensity of effects in comparison to ET-1 and SRT6b (ET receptor; ET-2 90 ng ICV): less intense

Compound: ET-3: specific ETB receptor agonist
- effect on hemodynamics or regional blood circulation (ET receptor): did not affect

Compound: sarafotoxin 6c
- effect on hemodynamics or regional blood circulation (ET receptor): did not affect
